pEC50, pIC50: −log10 of the molar value. Read-outs that look alike come from different tables or passages of the source.
How the values were obtained:
NS3/NS4 complexes = NS3/NS4 complexes (Hepatitis C virus genotype 1a, UniProt P27958); assay: NS3/NS4 inhibition activity (IC50); format: biochemical; conditions: Table 3, read-out: IC50
Summary of the method: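 Buffer: 50 mM Tris-HCl (pH 7.5), 10 mM DTT, 25 μM NS4A peptide, 0.6 mM LDAO and 15% glycerol. Assays were run at 23 °C with preformed NS3/NS4 complex, and the compound concentration giving inhibition was derived as an IC50.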

hepatitis C replicon = hepatitis C replicon EC50; format: cell-based; conditions: Hepatitis C virus
From the text: NS3-NS4 inhibition activity can be determined using known assay methods.

[1] = Table 3, hepatitis C replicon, read-out: EC50

Sequence of NS3/NS4 complexes (P27958 1027-1657): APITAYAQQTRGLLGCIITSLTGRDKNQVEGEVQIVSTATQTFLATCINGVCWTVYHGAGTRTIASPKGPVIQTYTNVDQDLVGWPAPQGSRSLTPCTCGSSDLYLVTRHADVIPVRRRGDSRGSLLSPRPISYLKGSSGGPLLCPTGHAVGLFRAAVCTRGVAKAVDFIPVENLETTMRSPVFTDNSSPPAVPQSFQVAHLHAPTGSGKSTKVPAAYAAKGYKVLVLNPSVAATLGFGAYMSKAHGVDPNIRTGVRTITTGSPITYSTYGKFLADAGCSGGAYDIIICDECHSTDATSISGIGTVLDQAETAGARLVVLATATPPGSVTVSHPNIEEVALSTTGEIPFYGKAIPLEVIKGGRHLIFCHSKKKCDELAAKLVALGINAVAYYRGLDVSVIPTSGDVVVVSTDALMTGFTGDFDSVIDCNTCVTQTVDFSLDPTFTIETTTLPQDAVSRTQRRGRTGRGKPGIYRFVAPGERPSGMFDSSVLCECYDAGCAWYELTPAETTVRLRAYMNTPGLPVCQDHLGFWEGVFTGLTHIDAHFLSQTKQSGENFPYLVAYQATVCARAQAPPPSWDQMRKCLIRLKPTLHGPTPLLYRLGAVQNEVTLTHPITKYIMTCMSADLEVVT
Sequence of NS3/NS4 complexes (P27958 1658-1711): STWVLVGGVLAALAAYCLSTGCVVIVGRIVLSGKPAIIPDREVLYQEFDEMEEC

SMILES	pIC50 (NS3/NS4 complexes)	pEC50 (hepatitis C replicon; [1])	pEC50 (hepatitis C replicon)
CNC(=O)COc1ccccc1S(=O)(=O)NC(=O)[C@@]12C[C@H]1/C=C\CCCCC[C@H](NC(=O)OC(C)(C)C)C(=O)N1C[C@H](O)C[C@H]1C(=O)N2 [Compound 1094]	< 7.00	< 7.00	–
CO[C@@H]1C[C@H]2C(=O)N[C@]3(C(=O)NS(=O)(=O)CC(=O)Nc4ccccc4)C[C@H]3/C=C\CCCCC[C@H](NC(=O)OC(C)(C)C)C(=O)N2C1 [Compound 1099]	> 8.00	–	> 8.00
CC1(S(=O)(=O)NC(=O)[C@@]23C[C@H]2/C=C\CCCCC[C@H](Nc2cc(F)cc(C(F)(F)F)c2)C(=O)N2C[C@H](OC(=O)N4Cc5cccc(F)c5C4)C[C@H]2C(=O)N3)CC1 [Compound 1100]	> 8.00	> 8.00	–
CC1(S(=O)(=O)NC(=O)[C@@]23C[C@H]2/C=C\CCCCC[C@H](Nc2cccc(C(N)=O)c2)C(=O)N2C[C@H](OC(=O)N4Cc5cccc(F)c5C4)C[C@H]2C(=O)N3)CC1 [Compound 1101]	> 8.00	7.00 to 8.00	–
CC1(S(=O)(=O)NC(=O)[C@@]23C[C@H]2/C=C\CCCCC[C@H](Nc2ccccc2)C(=O)N2C[C@H](OC(=O)N4Cc5cccc(F)c5C4)C[C@H]2C(=O)N3)CC1 [Compound 1102]	> 8.00	> 8.00	–
Cc1cccc(N[C@H]2CCCCC/C=C\[C@@H]3C[C@@]3(C(=O)NS(=O)(=O)C3(C)CC3)NC(=O)[C@@H]3C[C@@H](OC(=O)N4Cc5cccc(F)c5C4)CN3C2=O)c1 [Compound 1103]	> 8.00	> 8.00	–
COc1cccc(N[C@H]2CCCCC/C=C\[C@@H]3C[C@@]3(C(=O)NS(=O)(=O)C3(C)CC3)NC(=O)[C@@H]3C[C@@H](OC(=O)N4Cc5cccc(F)c5C4)CN3C2=O)c1 [Compound 1104]	> 8.00	> 8.00	–
Cc1cc(F)cc(N[C@H]2CCCCC/C=C\[C@@H]3C[C@@]3(C(=O)NS(=O)(=O)C3(C)CC3)NC(=O)[C@@H]3C[C@@H](OC(=O)N4Cc5cccc(F)c5C4)CN3C2=O)c1 [Compound 1105]	> 8.00	> 8.00	–
CN(C)C(=O)c1cccc(N[C@H]2CCCCC/C=C\[C@@H]3C[C@@]3(C(=O)NS(=O)(=O)C3(C)CC3)NC(=O)[C@@H]3C[C@@H](OC(=O)N4Cc5cccc(F)c5C4)CN3C2=O)c1 [Compound 1106]	> 8.00	7.00 to 8.00	–
CC1(S(=O)(=O)NC(=O)[C@@]23C[C@H]2/C=C\CCCCC[C@H](Nc2ccc(F)c(F)c2)C(=O)N2C[C@H](OC(=O)N4Cc5cccc(F)c5C4)C[C@H]2C(=O)N3)CC1 [Compound 1107]	> 8.00	7.00 to 8.00	–
CC1(S(=O)(=O)NC(=O)[C@@]23C[C@H]2/C=C\CCCCC[C@H](Nc2cc(F)c(F)c(F)c2)C(=O)N2C[C@H](OC(=O)N4Cc5cccc(F)c5C4)C[C@H]2C(=O)N3)CC1 [Compound 1108]	> 8.00	7.00 to 8.00	–
CC1(S(=O)(=O)NC(=O)[C@@]23C[C@H]2/C=C\CCCCC[C@H](Nc2ccc(C#N)cc2)C(=O)N2C[C@H](OC(=O)N4Cc5cccc(F)c5C4)C[C@H]2C(=O)N3)CC1 [Compound 1109]	> 8.00	7.00 to 8.00	–
CC(=O)Nc1cccc(N[C@H]2CCCCC/C=C\[C@@H]3C[C@@]3(C(=O)NS(=O)(=O)C3(C)CC3)NC(=O)[C@@H]3C[C@@H](OC(=O)N4Cc5cccc(F)c5C4)CN3C2=O)c1 [Compound 1110]	> 8.00	7.00 to 8.00	–
CC1(S(=O)(=O)NC(=O)[C@@]23C[C@H]2/C=C\CCCCC[C@H](Nc2ccc(F)cc2)C(=O)N2C[C@H](OC(=O)N4Cc5cccc(F)c5C4)C[C@H]2C(=O)N3)CC1 [Compound 1111]	> 8.00	7.00 to 8.00	–
CNC(=O)c1cccc(N[C@H]2CCCCC/C=C\[C@@H]3C[C@@]3(C(=O)NS(=O)(=O)C3(C)CC3)NC(=O)[C@@H]3C[C@@H](OC(=O)N4Cc5cccc(F)c5C4)CN3C2=O)c1 [Compound 1112]	> 8.00	< 7.00	–
CC1(S(=O)(=O)NC(=O)[C@@]23C[C@H]2/C=C\CCCCC[C@H](Nc2cccc(C#N)c2)C(=O)N2C[C@H](OC(=O)N4Cc5cccc(F)c5C4)C[C@H]2C(=O)N3)CC1 [Compound 1113]	> 8.00	7.00 to 8.00	–
Cc1ccccc1N[C@H]1CCCCC/C=C\[C@@H]2C[C@@]2(C(=O)NS(=O)(=O)C2(C)CC2)NC(=O)[C@@H]2C[C@@H](OC(=O)N3Cc4cccc(F)c4C3)CN2C1=O [Compound 1114]	> 8.00	7.00 to 8.00	–
CC1(S(=O)(=O)NC(=O)[C@@]23C[C@H]2/C=C\CCCCC[C@H](Nc2cccc(OC(F)(F)F)c2)C(=O)N2C[C@H](OC(=O)N4Cc5cccc(F)c5C4)C[C@H]2C(=O)N3)CC1 [Compound 1115]	> 8.00	> 8.00	–
CC1(S(=O)(=O)NC(=O)[C@@]23C[C@H]2/C=C\CCCCC[C@H](Nc2cccc(C(F)(F)F)c2)C(=O)N2C[C@H](OC(=O)N4Cc5cccc(F)c5C4)C[C@H]2C(=O)N3)CC1 [Compound 1116]	> 8.00	> 8.00	–
CC1(S(=O)(=O)NC(=O)[C@@]23C[C@H]2/C=C\CCCCC[C@H](Nc2cccc(F)c2)C(=O)N2C[C@H](OC(=O)N4Cc5cccc(F)c5C4)C[C@H]2C(=O)N3)CC1 [Compound 1117]	> 8.00	7.00 to 8.00	–

SMILES	pIC50 (NS3/NS4 complexes)	pEC50 (hepatitis C replicon; [1])	pEC50 (hepatitis C replicon)
CC1(S(=O)(=O)NC(=O)[C@@]23C[C@H]2/C=C\CCCCC[C@H](Nc2ccc(C(F)(F)F)cc2)C(=O)N2C[C@H](OC(=O)N4Cc5cccc(F)c5C4)C[C@H]2C(=O)N3)CC1 [Compound 1118]	> 8.00	< 7.00	–
CC1(S(=O)(=O)NC(=O)[C@@]23C[C@H]2/C=C\CCCCC[C@H](Nc2ccc(OC(F)(F)F)cc2)C(=O)N2C[C@H](OC(=O)N4Cc5cccc(F)c5C4)C[C@H]2C(=O)N3)CC1 [Compound 1119]	> 8.00	7.00 to 8.00	–
CC1(S(=O)(=O)NC(=O)[C@@]23C[C@H]2/C=C\CCCCC[C@H](Nc2ccc(F)c(C(F)(F)F)c2)C(=O)N2C[C@H](OC(=O)N4Cc5cccc(F)c5C4)C[C@H]2C(=O)N3)CC1 [Compound 1120]	> 8.00	> 8.00	–
CC(=O)Nc1ccc(N[C@H]2CCCCC/C=C\[C@@H]3C[C@@]3(C(=O)NS(=O)(=O)C3(C)CC3)NC(=O)[C@@H]3C[C@@H](OC(=O)N4Cc5cccc(F)c5C4)CN3C2=O)cc1 [Compound 1121]	> 8.00	7.00 to 8.00	–
CC1(S(=O)(=O)NC(=O)[C@@]23C[C@H]2/C=C\CCCCC[C@H](Nc2cccc(NS(C)(=O)=O)c2)C(=O)N2C[C@H](OC(=O)N4Cc5cccc(F)c5C4)C[C@H]2C(=O)N3)CC1 [Compound 1122]	> 8.00	7.00 to 8.00	–
CC1(S(=O)(=O)NC(=O)[C@@]23C[C@H]2/C=C\CCCCC[C@H](Nc2ccc(C(F)(F)F)c(F)c2)C(=O)N2C[C@H](OC(=O)N4Cc5cccc(F)c5C4)C[C@H]2C(=O)N3)CC1 [Compound 1123]	> 8.00	< 7.00	–
CC1(S(=O)(=O)NC(=O)[C@@]23C[C@H]2/C=C\CCCCC[C@H](Nc2ccccc2F)C(=O)N2C[C@H](OC(=O)N4Cc5cccc(F)c5C4)C[C@H]2C(=O)N3)CC1 [Compound 1124]	> 8.00	7.00 to 8.00	–
CC(C)(C)c1cccc(N[C@H]2CCCCC/C=C\[C@@H]3C[C@@]3(C(=O)NS(=O)(=O)C3(C)CC3)NC(=O)[C@@H]3C[C@@H](OC(=O)N4Cc5cccc(F)c5C4)CN3C2=O)c1 [Compound 1126]	> 8.00	> 8.00	–
CC1(S(=O)(=O)NC(=O)[C@@]23C[C@H]2/C=C\CCCCC[C@H](Nc2nc4ccccc4o2)C(=O)N2C[C@H](OC(=O)N4Cc5cccc(F)c5C4)C[C@H]2C(=O)N3)CC1 [Compound 1127]	> 8.00	7.00 to 8.00	–
O=C1N[C@]2(C(=O)NS(=O)(=O)C3CC3)C[C@H]2/C=C\CCCCC[C@H](Nc2cc(F)cc(C(F)(F)F)c2)C(=O)N2C[C@H](OC(=O)N3Cc4cccc(F)c4C3)C[C@@H]12 [Compound 1128]	> 8.00	> 8.00	–
CC(C)Cn1c(O[C@@H]2C[C@H]3C(=O)N[C@]4(C(=O)NS(=O)(=O)N(C)C)C[C@H]4/C=C\CCCCC[C@H](NC(=O)OC(C)(C)C)C(=O)N3C2)nc2ccccc21 [Compound 1129]	> 8.00	> 8.00	–
CN(C)S(=O)(=O)NC(=O)[C@@]12C[C@H]1/C=C\CCCCC[C@H](NC(=O)OC(C)(C)C)C(=O)N1C[C@H](Oc3nc4ccccc4n3C)C[C@H]1C(=O)N2 [Compound 1130]	> 8.00	> 8.00	–
CC(C)n1c(O[C@@H]2C[C@H]3C(=O)N[C@]4(C(=O)NS(=O)(=O)N(C)C)C[C@H]4/C=C\CCCCC[C@H](NC(=O)OC(C)(C)C)C(=O)N3C2)nc2ccccc21 [Compound 1131]	> 8.00	> 8.00	–
CCn1c(O[C@@H]2C[C@H]3C(=O)N[C@]4(C(=O)NS(=O)(=O)N(C)C)C[C@H]4/C=C\CCCCC[C@H](NC(=O)OC(C)(C)C)C(=O)N3C2)nc2ccccc21 [Compound 1132]	> 8.00	> 8.00	–
CC(C)n1c(O[C@@H]2C[C@H]3C(=O)N[C@]4(C(=O)NS(=O)(=O)N(C)C)C[C@H]4/C=C\CCCCC[C@H](NC(=O)OC(C)(C)C)C(=O)N3C2)nc2cc(F)ccc21 [Compound 1133]	> 8.00	> 8.00	–
CC(C)n1c(O[C@@H]2C[C@H]3C(=O)N[C@]4(C(=O)NS(=O)(=O)N(C)C)C[C@H]4/C=C\CCCCC[C@H](NC(=O)OC(C)(C)C)C(=O)N3C2)nc2cccc(F)c21 [Compound 1134]	> 8.00	> 8.00	–
CC(C)n1c(O[C@@H]2C[C@H]3C(=O)N[C@]4(C(=O)NS(=O)(=O)N(C)C)C[C@H]4/C=C\CCCCC[C@H](NC(=O)OC(C)(C)C)C(=O)N3C2)nc2c(F)cccc21 [Compound 1135]	> 8.00	> 8.00	–
CC(C)n1c(O[C@@H]2C[C@H]3C(=O)N[C@]4(C(=O)NS(=O)(=O)N(C)C)C[C@H]4/C=C\CCCCC[C@H](NC(=O)OC(C)(C)C)C(=O)N3C2)nc2ccc(F)cc21 [Compound 1136]	> 8.00	> 8.00	–
Cc1ccc2c(c1)nc(O[C@@H]1C[C@H]3C(=O)N[C@]4(C(=O)NS(=O)(=O)N(C)C)C[C@H]4/C=C\CCCCC[C@H](NC(=O)OC(C)(C)C)C(=O)N3C1)n2C(C)C [Compound 1137]	> 8.00	> 8.00	–

Reference: patent publication US8048862B2, “Macrocyclic inhibitors of hepatitis C virus replication” (priority 2008, dated 2011)
